Test results from patent US20100093861A1, “TREATMENT OF INSULIN RESISTANCE OR DISEASES ASSOCIATED WITH INSULIN RESISTANCE” (Stevia ApS, priority 2006, published 2010).

Columns and labels:
Pdx1 = experiment: Affymetrix gene chip analysis of KKAy islets: Pdx1; assay type: in vivo, mice; settings: ISV vs. KKAy control islets, 9 weeks
Method: (§1) cRNA preparation and in vitro transcription: In total 6 Affymetrix arrays MOE430 2.0 probe array cartridge were used i.e. for analysis of 3 replicas for the KKAy control group and the ISV group, respectively. Each of the 6 samples consisted of pooled RNA from 3-4 KKAy mice. Preparation of target for hybridization was prepared from 340 ng of total RNA using MessageAmp™ II aRNA Amplification Kits (Ambion), according to the manufacturers instructions. Arrays were hybridised and scanned as described elsewhere (Kruhoffer et al., 2005).

11beta-HSD1 = experiment: Gene expression in islets from diabetic KKAy-mice, real time RT-PCR (Example 2): 11beta-HSD1; assay type: in vivo; settings: islets of KKAy-mice after nine weeks treatment, normalized to 18S rRNA
Method: (§2) A the end of the nine week period of the in vivo study in example 1 RNA was purified from Islets, muscle, liver and fat from the three experimental groups, using standard techniques as described in Kiergen, RNA easy.
(§3) Gene expression of PDX-1, IRS1, Beta2, 11beta-HSD-1, Akt1, C/EBP-alpha, CPT1, GLUT2, IGF1, IR and Ins1 was measured with Real time RT-PCR using Taq Man Assays normalized to 18S rRNA, using the standard protocol (ABI, USA). All reagents were obtained from (ABI, USA). All probes are standard probes obtainable from ABI, USA, under the specific probe code number, given in respect of each gene.

Beta2/neuroD = experiment: Relative real time RT-PCR in islets of KKAy mice (Example 3): Beta2/neuroD; assay type: in vivo; settings: 9 weeks, normalized to 18S rRNA
Method: Islets were isolated by the collagenase digestion technique. In brief, the animals were anesthetized with pentobarbital (50 mg/kg intraperitoneally) and midline laparotomy was performed. The pancreas was retrogradely filled with 3 mL ice-cold Hanks balanced salt solution (([HBSS] Sigma Chemical, St Louis, Mo.) supplemented with 0.3 mg/ml collagenase Boehringer Mannheim GmbH, Germany). The pancreas was subsequently removed and incubated for 19 minutes at 37° C. After rinsing in HBSS, the islets were handpicked under a stereomicroscope and immediately transferred to a tubes containing 1 ml Trizol (Gibco/Invitrogene, Calsbad, Calif., USA). The islets isolated from the NMRI mice were incubated overnight at 37° C. and 95% normal atmosphere/5% CO2 in 10 ml RPMI 1640 containing 11.1 mmol/L glucose supplemented with penicillin G and 100 μg/mL streptomycin (all Gibco/Invitrogene, Calsbad, Calif., USA).
For each group, islets from 3-4 mice (180-200 islets) were pooled in 1 ml Trizol reagent (Gibco/lnvitrogene, Calsbad, Calif., USA) before RNA purification. Total RNA was extracted according to the manufactures' instructions. RNA was quantified by measuring absorbance at 260 and 280 nm. The quality of the RNA was checked by the Agilent 2100 bioanalyzer (Agilent, Santa Clara, USA). […]

INS-1 = experiment: Gene expression in islets from diabetic KKAy-mice, real time RT-PCR (Example 2): INS-1; assay type: in vivo; settings: islets of KKAy-mice after nine weeks treatment, normalized to 18S rRNA
Method: as §2, §3

C/EBPalpha = experiment: Affymetrix gene chip analysis of KKAy islets: C/EBPalpha; assay type: in vivo, mice; settings: ISV vs. KKAy control islets, 9 weeks
Method: as §1

InsI = experiment: Affymetrix gene chip analysis of KKAy islets: InsI; assay type: in vivo, mice; settings: ISV vs. KKAy control islets, 9 weeks
Method: as §1

## C[C@@]12CC[C@@H]3[C@@](CC[C@H]4[C@@]3(C)CCC[C@@]4(C)C(=O)O)(CC1=O)C2 (single isomer, unassigned; ent-16) [ISV, ent-16-ketobeyeran-19-oic acid]
Pdx1
  array: change of Pdx1 expression: upregulation
11beta-HSD1
  decreased expression of 11beta-HSD1 compared to standard diet: 61%
Beta2/neuroD
  increased expression of Beta2/neuroD, ISV group vs. control group: 60%
INS-1
  increased expression of INS-1 compared to standard diet: 132%
C/EBPalpha
  array: change of C/EBPalpha expression: down regulation
InsI
  array: change of InsI expression: did not show any statistical significant increase
